Test results: the kinase profiling compilation of Christmann-Franck et al. (2016)

How the values were obtained:
Experiment in all cases: radiometric filter-binding kinase assay, Kinase HotSpot
Settings in all cases: compound 0.5 µM; ATP 10 µM
FGR (human) = FGR (human) (UniProt P09769)
CHEK2 (human) = CHEK2 (human) (UniProt O96017)
PRKCH (human) = PRKCH (human) (UniProt P24723)
PNCK (human) = PNCK (human) (UniProt Q6P2M8)
MAPK14 (human) = MAPK14 (human) (UniProt Q16539)
HIPK3 (human) = HIPK3 (human) (UniProt Q9H422)
NEK1 (human) = NEK1 (human) (UniProt Q96PY6)
MELK (human) = MELK (human) (UniProt Q14680)
DYRK4 (human) = DYRK4 (human) (UniProt Q9NR20)
FGFR1 (human) = FGFR1 (human) (UniProt P11362)
Sequence of FGFR1 (human) (P11362 whole entry, looked up): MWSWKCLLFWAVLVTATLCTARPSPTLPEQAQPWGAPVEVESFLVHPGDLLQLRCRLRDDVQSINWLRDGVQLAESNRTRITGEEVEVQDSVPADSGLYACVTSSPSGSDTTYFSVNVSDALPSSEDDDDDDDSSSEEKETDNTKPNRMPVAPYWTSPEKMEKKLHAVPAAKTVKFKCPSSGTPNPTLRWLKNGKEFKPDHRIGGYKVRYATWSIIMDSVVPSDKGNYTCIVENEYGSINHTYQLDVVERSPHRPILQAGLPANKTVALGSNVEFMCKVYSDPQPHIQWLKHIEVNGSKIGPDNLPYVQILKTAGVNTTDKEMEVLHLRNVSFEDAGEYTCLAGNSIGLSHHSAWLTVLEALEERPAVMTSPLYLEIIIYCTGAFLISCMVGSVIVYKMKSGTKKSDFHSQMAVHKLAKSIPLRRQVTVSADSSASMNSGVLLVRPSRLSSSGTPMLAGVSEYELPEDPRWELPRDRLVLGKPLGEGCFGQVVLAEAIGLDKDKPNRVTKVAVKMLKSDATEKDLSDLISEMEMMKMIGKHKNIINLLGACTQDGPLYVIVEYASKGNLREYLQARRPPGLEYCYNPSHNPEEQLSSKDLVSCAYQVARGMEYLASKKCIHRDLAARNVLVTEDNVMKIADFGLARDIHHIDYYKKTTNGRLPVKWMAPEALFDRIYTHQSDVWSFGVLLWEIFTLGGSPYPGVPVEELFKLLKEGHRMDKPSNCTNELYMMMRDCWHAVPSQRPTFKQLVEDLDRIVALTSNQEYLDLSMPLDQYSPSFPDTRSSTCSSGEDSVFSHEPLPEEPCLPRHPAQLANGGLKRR

MARK1 (human) = MARK1 (human) (UniProt Q9P0L2)
TAOK3 (human) = TAOK3 (human) (UniProt Q9H2K8)
GSK3A (human) = GSK3A (human) (UniProt P49840)
MYLK2 (human) = MYLK2 (human) (UniProt Q9H1R3)
PRKACA (human) = PRKACA (human) (UniProt P17612)
CDK1 CCNA2 (human) = CDK1 CCNA2 (human) (UniProt P06493+P20248)
Sequence of CDK1 CCNA2 (human) (P06493 whole entry, looked up): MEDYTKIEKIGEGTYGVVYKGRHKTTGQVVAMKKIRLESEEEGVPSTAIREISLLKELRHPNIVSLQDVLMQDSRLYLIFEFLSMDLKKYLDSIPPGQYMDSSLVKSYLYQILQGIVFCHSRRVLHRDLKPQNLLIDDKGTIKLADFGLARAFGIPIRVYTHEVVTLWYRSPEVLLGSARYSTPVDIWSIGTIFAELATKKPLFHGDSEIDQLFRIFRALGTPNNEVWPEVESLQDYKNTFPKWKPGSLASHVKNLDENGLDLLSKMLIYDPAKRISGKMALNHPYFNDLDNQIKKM
Sequence of CDK1 CCNA2 (human) (P20248 whole entry, looked up): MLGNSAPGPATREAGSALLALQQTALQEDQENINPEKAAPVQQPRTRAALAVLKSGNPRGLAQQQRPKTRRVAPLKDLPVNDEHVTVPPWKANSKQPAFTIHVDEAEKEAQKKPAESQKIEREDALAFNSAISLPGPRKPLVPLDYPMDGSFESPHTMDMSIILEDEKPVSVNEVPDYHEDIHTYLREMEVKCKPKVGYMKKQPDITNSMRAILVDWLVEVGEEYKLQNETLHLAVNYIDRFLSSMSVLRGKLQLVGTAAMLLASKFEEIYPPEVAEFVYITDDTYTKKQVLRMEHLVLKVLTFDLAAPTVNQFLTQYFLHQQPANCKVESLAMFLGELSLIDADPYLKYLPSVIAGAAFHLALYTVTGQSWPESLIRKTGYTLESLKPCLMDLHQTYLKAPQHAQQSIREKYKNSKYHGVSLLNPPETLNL

WNK3 (human) = WNK3 (human) (UniProt Q9BYP7)
MAPK3 (human) = MAPK3 (human) (UniProt P27361)
SGK2 (human) = SGK2 (human) (UniProt Q9HBY8)
Sequence of SGK2 (human) (Q9HBY8 whole entry, looked up): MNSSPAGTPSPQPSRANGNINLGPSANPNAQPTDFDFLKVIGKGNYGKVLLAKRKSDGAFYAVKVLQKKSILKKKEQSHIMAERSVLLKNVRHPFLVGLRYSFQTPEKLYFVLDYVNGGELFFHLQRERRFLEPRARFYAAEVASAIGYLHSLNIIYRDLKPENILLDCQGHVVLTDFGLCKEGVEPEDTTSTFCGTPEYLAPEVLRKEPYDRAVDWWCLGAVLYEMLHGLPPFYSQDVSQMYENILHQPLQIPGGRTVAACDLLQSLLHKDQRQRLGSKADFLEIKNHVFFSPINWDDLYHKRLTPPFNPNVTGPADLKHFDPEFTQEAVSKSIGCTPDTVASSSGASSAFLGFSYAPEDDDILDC

CLK4 (human) = CLK4 (human) (UniProt Q9HAZ1)
FGFR4 (human) = FGFR4 (human) (UniProt P22455)
PRKCI (human) = PRKCI (human) (UniProt P41743)
CSNK1G2 (human) = CSNK1G2 (human) (UniProt P78368)
DAPK2 (human) = DAPK2 (human) (UniProt Q9UIK4)
PAK2 (human) = PAK2 (human) (UniProt Q13177)
ALK (human) = ALK (human) (UniProt Q9UM73)
RPS6KA2 KD1 KD2 (human) = RPS6KA2 KD1 KD2 (human) (UniProt Q15349)
MAPKAPK3 (human) = MAPKAPK3 (human) (UniProt Q16644)
CAMKK1 (human) = CAMKK1 (human) (UniProt Q8N5S9)
LRRK2 (human) = LRRK2 (human) (UniProt Q5S007)
Sequence of LRRK2 (human) (Q5S007 whole entry, looked up): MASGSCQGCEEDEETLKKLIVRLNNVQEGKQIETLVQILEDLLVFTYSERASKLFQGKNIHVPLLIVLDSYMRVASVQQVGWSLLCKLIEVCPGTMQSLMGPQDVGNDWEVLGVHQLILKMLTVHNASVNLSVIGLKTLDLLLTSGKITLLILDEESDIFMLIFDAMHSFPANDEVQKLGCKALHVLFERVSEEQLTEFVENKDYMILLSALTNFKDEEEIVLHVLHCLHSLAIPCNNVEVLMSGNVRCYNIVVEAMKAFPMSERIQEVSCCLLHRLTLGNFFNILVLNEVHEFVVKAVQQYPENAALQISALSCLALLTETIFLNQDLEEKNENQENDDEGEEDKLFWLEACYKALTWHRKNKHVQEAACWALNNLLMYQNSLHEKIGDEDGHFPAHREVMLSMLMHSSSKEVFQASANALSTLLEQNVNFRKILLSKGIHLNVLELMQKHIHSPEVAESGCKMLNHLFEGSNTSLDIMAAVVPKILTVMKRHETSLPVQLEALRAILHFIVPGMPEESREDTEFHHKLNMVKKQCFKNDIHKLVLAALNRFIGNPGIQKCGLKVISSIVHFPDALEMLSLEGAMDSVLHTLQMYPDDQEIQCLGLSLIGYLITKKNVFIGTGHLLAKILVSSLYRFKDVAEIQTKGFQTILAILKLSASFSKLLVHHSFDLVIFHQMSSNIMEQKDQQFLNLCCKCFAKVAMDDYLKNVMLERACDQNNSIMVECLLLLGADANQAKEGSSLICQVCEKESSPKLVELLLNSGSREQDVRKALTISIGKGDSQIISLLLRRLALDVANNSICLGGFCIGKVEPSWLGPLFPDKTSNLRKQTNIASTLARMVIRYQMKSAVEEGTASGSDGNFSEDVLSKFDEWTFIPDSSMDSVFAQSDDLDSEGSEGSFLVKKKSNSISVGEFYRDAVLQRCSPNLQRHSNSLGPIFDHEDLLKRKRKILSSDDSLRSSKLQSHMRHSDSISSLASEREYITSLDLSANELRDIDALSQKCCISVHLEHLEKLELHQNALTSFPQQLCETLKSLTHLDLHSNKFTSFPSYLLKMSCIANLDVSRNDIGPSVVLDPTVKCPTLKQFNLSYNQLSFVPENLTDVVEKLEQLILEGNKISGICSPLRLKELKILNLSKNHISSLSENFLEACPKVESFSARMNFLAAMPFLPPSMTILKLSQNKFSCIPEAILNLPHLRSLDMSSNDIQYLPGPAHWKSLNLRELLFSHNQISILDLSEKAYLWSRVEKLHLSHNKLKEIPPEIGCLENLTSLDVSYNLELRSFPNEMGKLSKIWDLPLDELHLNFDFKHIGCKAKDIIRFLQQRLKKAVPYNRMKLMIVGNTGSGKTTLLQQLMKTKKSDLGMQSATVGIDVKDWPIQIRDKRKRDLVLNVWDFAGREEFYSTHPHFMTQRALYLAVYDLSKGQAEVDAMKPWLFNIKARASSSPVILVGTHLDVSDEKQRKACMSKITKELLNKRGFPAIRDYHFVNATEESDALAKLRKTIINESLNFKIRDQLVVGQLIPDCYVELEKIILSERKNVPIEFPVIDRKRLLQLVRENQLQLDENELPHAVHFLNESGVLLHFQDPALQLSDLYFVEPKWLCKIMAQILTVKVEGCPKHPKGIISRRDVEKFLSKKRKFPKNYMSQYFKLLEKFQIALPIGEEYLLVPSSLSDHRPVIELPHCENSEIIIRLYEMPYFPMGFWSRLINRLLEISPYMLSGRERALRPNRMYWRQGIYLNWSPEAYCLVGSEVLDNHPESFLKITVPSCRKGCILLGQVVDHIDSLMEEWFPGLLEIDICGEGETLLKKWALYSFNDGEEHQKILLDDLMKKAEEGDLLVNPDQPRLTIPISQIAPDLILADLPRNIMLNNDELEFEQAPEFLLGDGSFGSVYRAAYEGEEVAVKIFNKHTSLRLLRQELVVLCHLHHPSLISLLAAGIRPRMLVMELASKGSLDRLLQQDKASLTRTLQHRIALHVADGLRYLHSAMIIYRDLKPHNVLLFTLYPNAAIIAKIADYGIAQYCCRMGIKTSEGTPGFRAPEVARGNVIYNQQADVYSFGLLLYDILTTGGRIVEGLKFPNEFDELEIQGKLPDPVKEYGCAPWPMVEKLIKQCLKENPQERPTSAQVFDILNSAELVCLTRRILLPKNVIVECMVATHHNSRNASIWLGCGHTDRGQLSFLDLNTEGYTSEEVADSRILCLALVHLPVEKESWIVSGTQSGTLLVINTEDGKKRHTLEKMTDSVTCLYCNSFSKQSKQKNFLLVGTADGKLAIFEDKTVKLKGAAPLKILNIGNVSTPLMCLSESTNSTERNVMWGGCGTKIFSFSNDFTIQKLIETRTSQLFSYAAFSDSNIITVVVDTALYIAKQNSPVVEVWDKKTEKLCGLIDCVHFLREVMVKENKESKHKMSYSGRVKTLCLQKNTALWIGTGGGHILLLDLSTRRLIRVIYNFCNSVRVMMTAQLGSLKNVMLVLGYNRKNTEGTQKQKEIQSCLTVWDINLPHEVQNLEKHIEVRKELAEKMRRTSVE

GRK5 (human) = GRK5 (human) (UniProt P34947)
Sequence of GRK5 (human) (P34947 whole entry, looked up): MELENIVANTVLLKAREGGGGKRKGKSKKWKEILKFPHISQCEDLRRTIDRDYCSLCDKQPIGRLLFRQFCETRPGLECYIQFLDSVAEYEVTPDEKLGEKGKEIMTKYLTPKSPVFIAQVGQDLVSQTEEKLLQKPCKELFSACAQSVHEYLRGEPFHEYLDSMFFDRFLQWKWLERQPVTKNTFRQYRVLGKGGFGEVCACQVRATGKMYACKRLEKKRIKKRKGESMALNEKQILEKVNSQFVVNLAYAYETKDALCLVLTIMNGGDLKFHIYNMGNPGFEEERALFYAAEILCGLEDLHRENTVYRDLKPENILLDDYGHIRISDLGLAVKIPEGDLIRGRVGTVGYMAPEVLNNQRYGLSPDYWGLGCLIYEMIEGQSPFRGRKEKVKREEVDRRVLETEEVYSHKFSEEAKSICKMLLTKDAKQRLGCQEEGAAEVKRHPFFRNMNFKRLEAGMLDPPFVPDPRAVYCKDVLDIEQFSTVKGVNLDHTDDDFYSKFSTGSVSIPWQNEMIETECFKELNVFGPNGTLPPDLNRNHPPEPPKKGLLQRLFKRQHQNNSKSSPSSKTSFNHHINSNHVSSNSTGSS

PRKX (human) = PRKX (human) (UniProt P51817)
PRKCE (human) = PRKCE (human) (UniProt Q02156)
FLT3 (human) = FLT3 (human) (UniProt P36888)
DSTYK (human) = DSTYK (human) (UniProt Q6XUX3)
FRK (human) = FRK (human) (UniProt P42685)
PASK (human) = PASK (human) (UniProt Q96RG2)
CAMK4 (human) = CAMK4 (human) (UniProt Q16566)
NTRK2 (human) = NTRK2 (human) (UniProt Q16620)
PKN2 (human) = PKN2 (human) (UniProt Q16513)
EPHA1 (human) = EPHA1 (human) (UniProt P21709)
CDK5 CDK5R1 p25 (human) = CDK5 CDK5R1 p25 (human) (UniProt Q00535+Q15078)

Work on CC(C)(C)c1nc2c3ccc(F)cc3c3c(=O)[nH]ccc3c2[nH]1 yielded a residual activity (FGR (human)) of 76.9%, a residual activity (CHEK2 (human)) of 0.717% and a residual activity (PRKCH (human)) of 81.5%. For the same compound, the residual activity (PNCK (human)) was 112%, the residual activity (MAPK14 (human)) was 93.5% and the residual activity (HIPK3 (human)) was 78.6%. The residual activity (NEK1 (human)) was 49%, the residual activity (MELK (human)) was 5.23% and the residual activity (DYRK4 (human)) was 104%. For the same compound, the residual activity (FGFR1 (human)) was 75.8%, the residual activity (MARK1 (human)) was 40.2% and the residual activity (TAOK3 (human)) was 50.3%. For the same compound, the residual activity (GSK3A (human)) was 121%, the residual activity (MYLK2 (human)) was 67.2% and the residual activity (PRKACA (human)) was 97.9%. For the same compound, the residual activity (CDK1 CCNA2 (human)) was 89.4%, the residual activity (WNK3 (human)) was 90% and the residual activity (MAPK3 (human)) was 85.7%. The residual activity (SGK2 (human)) was 84.4%, the residual activity (CLK4 (human)) was 70.7% and the residual activity (FGFR4 (human)) was 96.5%. It also gave a residual activity (PRKCI (human)) of 96%, a residual activity (CSNK1G2 (human)) of 100% and a residual activity (DAPK2 (human)) of 18%. For the same compound, the residual activity (PAK2 (human)) was 88.8%, the residual activity (ALK (human)) was 20% and the residual activity (RPS6KA2 KD1 KD2 (human)) was 34.6%. It also gave a residual activity (MAPKAPK3 (human)) of 94.4%, a residual activity (CAMKK1 (human)) of 81.4% and a residual activity (LRRK2 (human)) of 47.5%. It also gave a residual activity (GRK5 (human)) of 72.9%, a residual activity (PRKX (human)) of 79.2% and a residual activity (PRKCE (human)) of 51.4%. The residual activity (FLT3 (human)) was 13.6%, the residual activity (DSTYK (human)) was 62% and the residual activity (FRK (human)) was 104%. For the same compound, the residual activity (PASK (human)) was 83.2%, the residual activity (CAMK4 (human)) was 81.8% and the residual activity (NTRK2 (human)) was 16.1%. The residual activity (PKN2 (human)) was 67.1% and the residual activity (EPHA1 (human)) was 80.5%.

Compound COc1ccc(-c2cnc3c(-c4ccsc4)cnn3c2)cc1 has a residual activity (FGR (human)) of 72.3%, a residual activity (CHEK2 (human)) of 89.1% and a residual activity (PRKCH (human)) of 111%. It also gave a residual activity (CDK5 CDK5R1 p25 (human)) of 73%, a residual activity (PNCK (human)) of 90.9% and a residual activity (MAPK14 (human)) of 120%. It also gave a residual activity (HIPK3 (human)) of 103%, a residual activity (NEK1 (human)) of 89.4% and a residual activity (MELK (human)) of 73.6%. The residual activity (DYRK4 (human)) was 129%, the residual activity (FGFR1 (human)) was 80.3% and the residual activity (MARK1 (human)) was 98.9%. It also gave a residual activity (TAOK3 (human)) of 96.9%, a residual activity (GSK3A (human)) of 92.5% and a residual activity (MYLK2 (human)) of 75.6%. For the same compound, the residual activity (PRKACA (human)) was 96.1%, the residual activity (CDK1 CCNA2 (human)) was 87.4% and the residual activity (WNK3 (human)) was 92.7%. For the same compound, the residual activity (MAPK3 (human)) was 99.5%, the residual activity (SGK2 (human)) was 96.7% and the residual activity (CLK4 (human)) was 62%. It also gave a residual activity (FGFR4 (human)) of 89.2%, a residual activity (PRKCI (human)) of 96.2% and a residual activity (CSNK1G2 (human)) of 82.3%. It also gave a residual activity (DAPK2 (human)) of 87.4%, a residual activity (PAK2 (human)) of 79.1% and a residual activity (ALK (human)) of 80.4%. It also gave a residual activity (RPS6KA2 KD1 KD2 (human)) of 87.5%, a residual activity (MAPKAPK3 (human)) of 97.5% and a residual activity (CAMKK1 (human)) of 79.2%. It also gave a residual activity (LRRK2 (human)) of 68.1%, a residual activity (GRK5 (human)) of 97.4% and a residual activity (PRKX (human)) of 89.5%. It also gave a residual activity (PRKCE (human)) of 103%, a residual activity (FLT3 (human)) of 11.1% and a residual activity (DSTYK (human)) of 97.6%. It also gave a residual activity (FRK (human)) of 85.6%, a residual activity (PASK (human)) of 79.5% and a residual activity (CAMK4 (human)) of 98.4%. For the same compound, the residual activity (NTRK2 (human)) was 82.9%, the residual activity (PKN2 (human)) was 107% and the residual activity (EPHA1 (human)) was 91.5%.

Cc1ccc(NC(=O)c2ccc(CN3CCN(C)CC3)cc2)cc1Nc1nc(-c2cccnc2)cs1 was tested, and the residual activity (FGR (human)) was 43.6%, the residual activity (CHEK2 (human)) was 101% and the residual activity (PRKCH (human)) was 102%. It also gave a residual activity (CDK5 CDK5R1 p25 (human)) of 104%, a residual activity (PNCK (human)) of 97% and a residual activity (MAPK14 (human)) of 98.1%. It also gave a residual activity (HIPK3 (human)) of 101%, a residual activity (NEK1 (human)) of 116% and a residual activity (MELK (human)) of 84.8%. It also gave a residual activity (DYRK4 (human)) of 100%, a residual activity (FGFR1 (human)) of 103% and a residual activity (MARK1 (human)) of 86.9%. It also gave a residual activity (TAOK3 (human)) of 95.4%, a residual activity (GSK3A (human)) of 101% and a residual activity (MYLK2 (human)) of 98.7%. It also gave a residual activity (PRKACA (human)) of 104%, a residual activity (CDK1 CCNA2 (human)) of 98% and a residual activity (WNK3 (human)) of 99.9%. It also gave a residual activity (MAPK3 (human)) of 103%, a residual activity (SGK2 (human)) of 106% and a residual activity (CLK4 (human)) of 93.3%. For the same compound, the residual activity (FGFR4 (human)) was 89.8%, the residual activity (PRKCI (human)) was 93.7% and the residual activity (CSNK1G2 (human)) was 92.9%. For the same compound, the residual activity (DAPK2 (human)) was 104%, the residual activity (PAK2 (human)) was 111% and the residual activity (ALK (human)) was 103%. It also gave a residual activity (RPS6KA2 KD1 KD2 (human)) of 99.7%, a residual activity (MAPKAPK3 (human)) of 97.9% and a residual activity (CAMKK1 (human)) of 97.6%. The residual activity (LRRK2 (human)) was 107%, the residual activity (GRK5 (human)) was 106% and the residual activity (PRKX (human)) was 99.5%. The residual activity (PRKCE (human)) was 100%, the residual activity (FLT3 (human)) was 84.4% and the residual activity (DSTYK (human)) was 92.4%. For the same compound, the residual activity (PASK (human)) was 103%, the residual activity (CAMK4 (human)) was 98.6% and the residual activity (NTRK2 (human)) was 101%. For the same compound, the residual activity (PKN2 (human)) was 108% and the residual activity (EPHA1 (human)) was 96.5%.
